“And” between values parts separate entries of the source, which are not always exact repeats. Identical values can stand only once. Toxic doses and inconclusive results are not listed.

Data on 21 compounds can be found in PubChem BioAssay AID330 (DTP/NCI, 2004).

For this assay, the system named is P388 leukemia ip, CD2F1 mice, survival T/C. In words: NCI In Vivo Anticancer Drug Screen. Data for tumor model P388 Leukemia (intraperitoneal) in CD2F1 (CDF1) mice. Conditions: endpoint: median survival time, higher = longer survival. Put shortly: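 Mice carrying the transplanted tumor received test compound or vehicle. Survival was recorded in each group, and the value is the treated-group measurement divided by that of the vehicle-treated control group.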

Setting [1] is: dose: 50.0 mg/kg/injection, schedule: Q01DX005 (ip), vehicle: saline with Tween-80.
[2] abbreviates: dose: 100.0 mg/kg/injection, schedule: Q01DX005 (ip), vehicle: saline with Tween-80.
[3] abbreviates: dose: 200.0 mg/kg/injection, schedule: Q01DX005 (ip), vehicle: saline with Tween-80.
Setting [4] is: dose: 25.0 mg/kg/injection, schedule: Q01DX009 (ip), vehicle: saline.
[5] abbreviates: dose: 50.0 mg/kg/injection, schedule: Q01DX009 (ip), vehicle: saline.
The mark [6] stands for this setting: dose: 100.0 mg/kg/injection, schedule: Q01DX009 (ip), vehicle: saline.
Setting [7] is: dose: 200.0 mg/kg/injection, schedule: Q01DX009 (ip), vehicle: saline.
Where [8] appears, read: dose: 50.0 mg/kg/injection, schedule: Q01DX005 (ip), vehicle: Klucel (hydroxypropylcellulose) (HPC).
[9] abbreviates: dose: 100.0 mg/kg/injection, schedule: Q01DX005 (ip), vehicle: Klucel (hydroxypropylcellulose) (HPC).
[10] abbreviates: dose: 200.0 mg/kg/injection, schedule: Q01DX005 (ip), vehicle: Klucel (hydroxypropylcellulose) (HPC).
[11] abbreviates: dose: 100.0 mg/kg/injection, schedule: Q04DX003 (ip), vehicle: saline with Tween-80.
[12] abbreviates: dose: 200.0 mg/kg/injection, schedule: Q04DX003 (ip), vehicle: saline with Tween-80.
Where [13] appears, read: dose: 400.0 mg/kg/injection, schedule: Q04DX003 (ip), vehicle: saline with Tween-80.
Where [14] appears, read: dose: 60.0 mg/kg/injection, schedule: Q01DX005 (ip), vehicle: saline with Tween-80.
The mark [15] stands for this setting: dose: 120.0 mg/kg/injection, schedule: Q01DX005 (ip), vehicle: saline with Tween-80.
[16] abbreviates: dose: 240.0 mg/kg/injection, schedule: Q01DX005 (ip), vehicle: saline with Tween-80.
The mark [17] stands for this setting: dose: 60.0 mg/kg/injection, schedule: Q01DX005 (ip), vehicle: Klucel (hydroxypropylcellulose) (HPC).
Setting [18] is: dose: 120.0 mg/kg/injection, schedule: Q01DX005 (ip), vehicle: Klucel (hydroxypropylcellulose) (HPC).
[19] abbreviates: dose: 240.0 mg/kg/injection, schedule: Q01DX005 (ip), vehicle: Klucel (hydroxypropylcellulose) (HPC).
[20] abbreviates: dose: 200.0 mg/kg/injection, schedule: Q01DX001 (ip), vehicle: Klucel (hydroxypropylcellulose) (HPC).

With `CCCCCCCC(=O)OCC(=O)[C@]1(O)Cc2c(O)c3c(c(O)c2[C@@H](OC2CC(N)C(O)C(C)O2)C1)C(=O)c1c(OC)cccc1C3=O` (stereo partly drawn), the T/C (dose: 0.5 mg/kg/injection, schedule: Q01DX009 (ip), vehicle: saline sonified) was 159 % of control; the T/C (dose: 0.5 mg/kg/injection, schedule: Q01DX009 (ip), vehicle: saline with Tween-80) was 178 % of control; the T/C (dose: 0.5 mg/kg/injection, schedule: Q01DX009 (ip), vehicle: water) was 158 % of control; the T/C (dose: 1.0 mg/kg/injection, schedule: Q01DX009 (ip), vehicle: saline sonified) was 190 % of control; the T/C (dose: 1.0 mg/kg/injection, schedule: Q01DX009 (ip), vehicle: saline with Tween-80) is 185 % of control; the T/C (dose: 1.0 mg/kg/injection, schedule: Q01DX009 (ip), vehicle: water) was 181 % of control. For the same compound, the T/C is 172 % of control (dose: 1.73 mg/kg/injection, schedule: Q04DX003 (ip), vehicle: water); 231 % of control (dose: 2.0 mg/kg/injection, schedule: Q01DX009 (ip), vehicle: saline sonified); 247 % of control (dose: 2.0 mg/kg/injection, schedule: Q01DX009 (ip), vehicle: water); 198 % of control (dose: 2.88 mg/kg/injection, schedule: Q04DX003 (ip), vehicle: water); 209 % of control and 92 % of control (dose: 4.0 mg/kg/injection, schedule: Q01DX009 (ip), vehicle: saline with Tween-80); 104 % of control (dose: 4.0 mg/kg/injection, schedule: Q01DX009 (ip), vehicle: water). Also, the T/C (dose: 4.8 mg/kg/injection, schedule: Q04DX003 (ip), vehicle: water) was 202 % of control; the T/C (dose: 8.0 mg/kg/injection, schedule: Q01DX009 (ip), vehicle: saline with Tween-80) is 114 % of control; the T/C (dose: 8.0 mg/kg/injection, schedule: Q04DX003 (ip), vehicle: water) is 190 % of control; the T/C (dose: 13.3 mg/kg/injection, schedule: Q04DX003 (ip), vehicle: water) is 111 % of control.

Regarding `COc1c(Cl)cc(Cl)cc1C(=O)NO`, the T/C is, setting by setting: under setting [1], 97 % of control; under setting [2], 106 % of control; under setting [3], 112 % of control.

For the compound `CC1=NN(c2ccccc2)C(=O)C1N=Nc1cc([N+](=O)[O-])cc(S(=O)(=O)O)c1O.CC1=NN(c2ccccc2)C(=O)C1N=Nc1cc([N+](=O)[O-])cc(S(=O)(=O)O)c1O.[Cr]` (stereo not drawn), the T/C was 106 % of control and 108 % of control under setting [4]; 111 % of control and 112 % of control and 115 % of control under setting [5]; 119 % of control and 124 % of control (2×) under setting [6]; 101 % of control and 103 % of control and 115 % of control under setting [7].

`OCC1OC(O)C(N=Cc2ccccc2O)C(O)C1O` (stereo not drawn): the T/C is, setting by setting: under setting [8], 104 % of control; under setting [9], 104 % of control; under setting [10], 106 % of control.

For `O=c1[nH]ccc2sccc12`, the T/C was 95 % of control (dose: 50.0 mg/kg/injection, schedule: Q01DX009 (ip), vehicle: saline with Tween-80) and 100 % of control (dose: 100.0 mg/kg/injection, schedule: Q01DX009 (ip), vehicle: saline with Tween-80).

As to `Cc1nc2c([N+](=O)[O-])c(NCc3ccccc3)c([N+](=O)[O-])cc2[nH]1`, the T/C by setting is: under setting [11], 97 % of control; under setting [12], 95 % of control; under setting [13], 101 % of control.

As to `O=S(=O)(Nc1ccc(C(F)(F)F)cc1)c1ccc(F)cc1`, the T/C is 100 % of control under setting [14], 100 % of control under setting [15] and 104 % of control under setting [16].

On to `O=C(NC1(OC(=O)c2ccc(Cl)cc2)CC1)c1ccc(Cl)cc1`, for which the T/C runs as follows: under setting [17], 103 % of control; under setting [18], 104 % of control; under setting [19], 89 % of control.

Take `O=C1c2c(-c3ccccc3)ccc(-c3ccccc3)c2C2(O)OC1(O)c1c(-c3ccccc3)ccc(-c3ccccc3)c1C2=O`: the T/C is, setting by setting: under setting [8], 94 % of control; under setting [9], 90 % of control; under setting [10], 92 % of control.

Take `C[N+](C)(C)CCOP(=O)([O-])OC1CCCC1`: the T/C runs as follows: under setting [5], 103 % of control; under setting [6], 100 % of control; under setting [7], 105 % of control.

For the compound `Cc1ccc(S(=O)(=O)CC2OCC3OC(C)(C)OC23)cc1` (stereo not drawn), the T/C was 100 % of control (dose: 12.5 mg/kg/injection, schedule: Q01DX009 (ip), vehicle: water); 93 % of control (dose: 25.0 mg/kg/injection, schedule: Q01DX009 (ip), vehicle: water); 89 % of control (dose: 50.0 mg/kg/injection, schedule: Q01DX009 (ip), vehicle: water); 100 % of control (dose: 100.0 mg/kg/injection, schedule: Q01DX009 (ip), vehicle: water); 94 % of control (dose: 200.0 mg/kg/injection, schedule: Q01DX009 (ip), vehicle: water).

Turning to `O=[N+]([O-])c1ccc(SCc2ccccc2)c2nonc12`, the T/C was 111 % of control (dose: 12.5 mg/kg/injection, schedule: Q01DX009 (ip), vehicle: suspension in saline); 94 % of control under setting [4]; 106 % of control (dose: 25.0 mg/kg/injection, schedule: Q01DX009 (ip), vehicle: suspension in saline); 100 % of control under setting [5]; 113 % of control (dose: 50.0 mg/kg/injection, schedule: Q01DX009 (ip), vehicle: suspension in saline); 94 % of control under setting [6].

Consider `Cc1cc(-n2nnc3ccccc3c2=O)on1`, for which the T/C was 114 % of control under setting [17], 101 % of control under setting [18] and 119 % of control under setting [19].

Take `COc1ccccc1C1=NC(C)(C)CO1`: the T/C was 99 % of control under setting [1], 94 % of control under setting [2] and 91 % of control under setting [3].

Turning to `NC1CCC2CCCCC2C1` (stereo not drawn), the T/C (dose: 100.0 mg/kg/injection, schedule: Q01DX001 (ip), vehicle: saline) was 100 % of control and the T/C (dose: 200.0 mg/kg/injection, schedule: Q01DX001 (ip), vehicle: saline) was 104 % of control.

With `N#Cc1c(-c2ccc(Cl)cc2)c(-c2ccc(Cl)cc2)nn(CCCl)c1=O`, the T/C was 91 % of control (dose: 100.0 mg/kg/injection, schedule: Q04DX002 (ip), vehicle: saline with Tween-80); 100 % of control (dose: 200.0 mg/kg/injection, schedule: Q04DX002 (ip), vehicle: saline with Tween-80); 91 % of control (dose: 400.0 mg/kg/injection, schedule: Q04DX002 (ip), vehicle: saline with Tween-80).

With `COc1c2ccccc2c(C)c2ccc3ccccc3c12`, the T/C runs as follows: (dose: 100.0 mg/kg/injection, schedule: Q01DX001 (ip), vehicle: Klucel (hydroxypropylcellulose) (HPC)) 107 % of control; under setting [20], 111 % of control.

Turning to `O=C1CC(O)(c2ccccc2)CCS1` (stereo not drawn), the T/C is, setting by setting: (dose: 100.0 mg/kg/injection, schedule: Q04DX003 (ip), vehicle: Klucel (hydroxypropylcellulose) (HPC)) 99 % of control; (dose: 200.0 mg/kg/injection, schedule: Q04DX003 (ip), vehicle: Klucel (hydroxypropylcellulose) (HPC)) 107 % of control; (dose: 400.0 mg/kg/injection, schedule: Q04DX003 (ip), vehicle: Klucel (hydroxypropylcellulose) (HPC)) 106 % of control.

Consider `COc1ccc(SSc2ccc(OC)n[n+]2[O-])[n+]([O-])n1`, for which the T/C is 103 % of control (dose: 10.0 mg/kg/injection, schedule: Q01DX001 (ip), vehicle: Klucel (hydroxypropylcellulose) (HPC)) and 111 % of control under setting [20].

`O=C(O)C1CC2c3ccccc3C1([N+](=O)[O-])c1ccccc12` (stereo not drawn): the T/C was 101 % of control under setting [14], 104 % of control under setting [15] and 109 % of control under setting [16].

Take `CCCCOC(=O)CCC(C)=O`: the T/C was 100 % of control under setting [11], 100 % of control under setting [12] and 104 % of control under setting [13].
